Test results published in patent publication US11986471B2, “Compounds and methods of use” (Tango Therapeutics, Inc., priority 2018, dated 2024).

Legend:
PRMT5 [1] = molecular target: T1, PRMT5 (Homo sapiens, UniProt O14744); assay: PRMT5 IC50 assay in the presence of SAM as cofactor; assay type: biochemical
T1 construct: purchased Viva (custom protein)
In short: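 Ki conversion: SAM arm, Ki=IC50/1.5; MTA arm, Ki=IC50/13.5. No-cofactor arm reported as IC50 only. Selectivity expressed as Ki(SAM)/Ki(MTA).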

PRMT5 [2] = molecular target: T1, PRMT5; assay: PRMT5 IC50 assay with no cofactor; assay type: biochemical
In short: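 Potency against PRMT5 is compared across cofactor states, where IC50 equals Ki×1.5 with SAM present and Ki×13.5 with MTA present.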

PRMT5 [3] = molecular target: T1, PRMT5; assay: PRMT5 IC50 assay in the presence of MTA as cofactor; assay type: biochemical; conditions: for IC50: PRMT5, MTA as cofactor
In short: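 Three cofactor conditions are run: SAM-bound, MTA-bound and cofactor-free enzyme. IC50 is read from each; for the SAM and MTA arms it is divided by 1.5 and 13.5 respectively to give Ki.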

HAP1 MTAP-intact = assay: SDMA in-cell western assay, HAP1 MTAP-intact cell line; assay type: cell-based; conditions: Homo sapiens
In short: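 HAP1 isogenic pair: endogenous MTAP vs MTAP-null. Readout SDMA by in-cell western; IC50 per line. Ratio ≥3 fold = MTAP-selective.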

HAP1 MTAP-deleted = assay: SDMA in-cell western assay, HAP1 MTAP-deleted cell line; assay type: cell-based; conditions: for IC50: Homo sapiens, HAP1 MTAP-deleted cell line; for MTAP Intact/Deleted Ratio: IC50 ratio HAP1 MTAP-intact / HAP1 MTAP-deleted
In short: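 IC50 from SDMA in-cell western; HAP1 line lacking MTAP (null), paired isogenically with MTAP-intact HAP1 expressing endogenous MTAP.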

[4] = ratio between Ki in the presence of SAM and Ki in the presence of MTA

T1 sequence (O14744 whole entry): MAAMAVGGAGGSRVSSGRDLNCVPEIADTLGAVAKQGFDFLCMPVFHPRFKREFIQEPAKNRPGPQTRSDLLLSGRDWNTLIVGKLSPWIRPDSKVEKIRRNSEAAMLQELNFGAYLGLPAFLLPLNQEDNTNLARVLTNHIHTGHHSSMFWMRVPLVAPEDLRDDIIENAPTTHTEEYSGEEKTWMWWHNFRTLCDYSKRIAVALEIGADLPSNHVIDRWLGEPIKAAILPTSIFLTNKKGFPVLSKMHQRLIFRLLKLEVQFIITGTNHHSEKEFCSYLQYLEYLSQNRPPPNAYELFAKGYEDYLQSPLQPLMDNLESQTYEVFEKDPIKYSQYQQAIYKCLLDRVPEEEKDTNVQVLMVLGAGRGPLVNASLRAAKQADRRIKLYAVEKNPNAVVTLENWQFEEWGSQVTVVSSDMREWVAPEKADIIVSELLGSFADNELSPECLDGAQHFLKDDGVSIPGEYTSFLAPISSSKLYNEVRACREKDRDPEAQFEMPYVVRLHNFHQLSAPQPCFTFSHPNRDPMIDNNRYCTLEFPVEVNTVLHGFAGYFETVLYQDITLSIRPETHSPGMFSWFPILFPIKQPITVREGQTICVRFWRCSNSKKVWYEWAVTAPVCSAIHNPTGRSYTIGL
T1 sequence (Q9BQA1 whole entry partner): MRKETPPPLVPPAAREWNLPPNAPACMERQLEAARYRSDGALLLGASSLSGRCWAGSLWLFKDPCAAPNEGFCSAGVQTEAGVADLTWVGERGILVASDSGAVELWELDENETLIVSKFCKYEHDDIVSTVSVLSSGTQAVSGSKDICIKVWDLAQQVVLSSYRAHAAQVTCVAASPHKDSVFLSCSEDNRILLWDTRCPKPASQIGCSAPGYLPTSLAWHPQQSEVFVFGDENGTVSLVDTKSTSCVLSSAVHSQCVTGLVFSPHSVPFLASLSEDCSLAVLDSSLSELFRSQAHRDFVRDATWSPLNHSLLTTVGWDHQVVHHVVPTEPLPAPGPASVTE

Row | IC50 (PRMT5 [1]) | IC50 (PRMT5 [2]) | IC50 (PRMT5 [3]) | IC50 (HAP1 MTAP-intact) | IC50 (HAP1 MTAP-deleted) | IC50 (PRMT5 [2]; read-out: No Co-factor IC50) | SMILES | MTAP Intact/Deleted Ratio (HAP1 MTAP-deleted) | SAM/MTA Ratio (PRMT5 [3]; ratio between the Ki in the presence of SAM and the Ki in the presence of MTA) | SAM/MTA Ratio (PRMT5 [3]; [4])
1 | 0.05 to 0.5 µM | 0.5 to 5 µM | 0.05 to 0.5 µM | ≥ 10 µM | 1 to 10 µM |  | CC(=O)N1CCC(Nc2cc(C(=O)NC[C@H](O)CN3CCc4nc(OCc5ocnc5C)ccc4C3)ccn2)CC1 [Compound 617, 2-[(1-acetyl-4-piperidyl)amino]-N-[(2S)-2-hydroxy-3-[2-[(4-methyloxazol-5-yl)methoxy]-7,8-dihydro-5H-1,6-naphthyridin-6-yl]propyl]pyridine-4-carboxamide] | C* (an IC50 ratio of less than 3 fold between the IC50 in the HAP1 MTAP-intact cell line and the HAP1 MTAP-deleted cell line) |  | 
2 | 0.05 to 0.5 µM | 0.5 to 5 µM | 0.05 to 0.5 µM | 1 to 10 µM | < 1 µM |  | Cc1ncoc1COc1ccc2c(c1)CCN(C[C@@H](O)CNC(=O)c1cc(NC3COC3)nc(N3CCN(C(=O)C(C)C)CC3)n1)C2 [Compound 454, N-[(2S)-2-hydroxy-3-{6-[(4-methyl-1,3-oxazol-5-yl)methoxy]-1,2,3,4-tetrahydroisoquinolin-2-yl}propyl]-2-[4-(2-methylpropanoyl)piperazin-1-yl]-6-[(oxetan-3-yl)amino]pyrimidine-4-carboxamide] | B* (an IC50 ratio greater than or equal to 3 fold but lower than 10 fold between the IC50 in the HAP1 MTAP-intact cell line and the HAP1 MTAP-deleted cell line) | A (a Ki ratio greater than or equal to 10 fold between the Ki in the presence of SAM and the Ki in the presence of MTA) | 
3 | 0.05 to 0.5 µM |  | 0.05 to 0.5 µM | < 1 µM | < 1 µM | 0.5 to 5 µM | Cc1ncoc1COc1ccc2c(c1)CCN(C[C@@H](O)CNC(=O)c1ccc(OC3CCN(Cc4ccccc4)CC3)cc1)C2 [Compound 392] | C* (an IC50 ratio of less than 3 fold between the IC50 in the HAP1 MTAP-intact cell line and the HAP1 MTAP-deleted cell line) |  | A (a Ki ratio greater than or equal to 10 fold between the Ki in the presence of SAM and the Ki in the presence of MTA)
4 | 0.05 to 0.5 µM |  | 0.05 to 0.5 µM | ≥ 10 µM | 1 to 10 µM | ≥ 5 µM | O=C(NC[C@H](O)CN1CCc2cc(OCc3cnco3)c(F)c(F)c2C1)c1ccnc(NC2CCC2)c1 [Compound 364, 2-(cyclobutylamino)-N-[(2S)-3-[7,8-difluoro-6-(oxazol-5-ylmethoxy)-3,4-dihydro-1H-isoquinolin-2-yl]-2-hydroxy-propyl]pyridine-4-carboxamide] | C* (an IC50 ratio of less than 3 fold between the IC50 in the HAP1 MTAP-intact cell line and the HAP1 MTAP-deleted cell line) |  | A (a Ki ratio greater than or equal to 10 fold between the Ki in the presence of SAM and the Ki in the presence of MTA)
